Assay results published in PubChem BioAssay AID2060504 (Molecular Pharmacology Branch, DTP, NCI, 2025).

Test system: 636577-100-R-J1-PDC complex spheroid viability
Assay: Anticancer human tumor 636577-100-R-J1-PDC patient-derived endometrial adenocarcinoma cell line growth inhibition [GQUAD]
Conditions: for IC50: curve of first compound; for viability, T/C: stronger effect = lower value
Source text: DNA G-quadruplex Stabilizer Agents in Combinations in Complex Spheroids
A high-throughput screen of multi-cell type tumor spheroids was designed to identify active combinations of DNA G-quadruplex stabilizer agents and targeted small molecules. Complex spheroids include a stromal component modeled by human endothelial cells (HUVEC) and fibroblasts modeled by human mesenchymal stem cells (MSCs). The concentration ranges selected for each drug and investigational agent were based upon clinically achievable concentrations if the clinical Cmax of the agent was known.
Compounds. The drugs and investigational agents: pidnarulex (CX-5461; NSC782164), APTO-253 (NSC789042), BRACO-19 (NSC847499), peposertib (NSC802822), ceralasertib (NSC780249), elimusertib (NSC800525), camonsertib (NSC841442), AZD-1390 (NSC803789), olaparib (NSC753686), talazoparib (NSC767125), ART-558 (NSC835418), sotorasib (NSC818433), MRTX-1133 (NSC836407), SN-38 (NSC673596), topotecan (NSC609699), etoposide (NSC141540), doxorubicin (NSC123127), gemcitabine (NSC613327), 5-fluorouracil (NSC19893), paclitaxel (NSC125973), vemurafenib (NSC761431), panobinostat (NSC761190), R-306465 (JNJ-16241199; NSC773264), adavosertib (NSC754352), TP-3654 (NSC805149), carboplatin (NSC241240), KSQ-4279 (NSC840948), and staurosporine (NSC755774) were obtained from the National Cancer Institute (NCI) Developmental Therapeutics Program Chemical Repository (34). The FDA-approved anticancer drug set is available from the NCI Developmental Therapeutics Program. […] The stock solutions were prepared in dimethyl sulfoxide (DMSO, Sigma-Aldrich, St. Louis, MO, cat. D2650) at 800-fold the tested concentration and stored at -70 degrees C prior to their use. All drugs and investigational agents were tested over a range starting from a high concentration at or near the clinical Cmax and decreasing in half-log increments. If the clinical Cmax for an agent had not been determined, the highest concentration tested was 10 microM.
2.3 Cell Culture. All cells were maintained in an incubator at 37 degrees C and 5% CO2 with 95% humidity. The PDC lines were cultured according to standard operating procedures established by the NCI PDMR. All PDCs were thawed and cultured in Matrigel-coated flasks prepared with a working solution of 1X Ham's F-12 nutrient mix, without supplementation (Invitrogen, cat. 11765054), 100 U/mL penicillin-streptomycin (Invitrogen, cat. 15140122), and 2.5% Matrigel (Corning Inc., cat. 354248) for the first three passages. The 857933-349-R-J2-PDC line was cultured in 6C/Colon 1B media, which includes advanced DMEM/F-12 (Thermo Fisher Scientific, cat. 12634028), 10 mM HEPES (Thermo Fisher Scientific, cat. 15630080), 1X GlutaMAX supplement (Thermo Fisher Scientific, cat. 35050061), 0.1 mg/mL primocin (InvivoGen, cat. ant-pm-2), 10% defined fetal bovine serum, heat inactivated (HyClone Laboratories Inc., cat. SH30070.03HI), 50% L-WRN conditioned media (ATCC, cat. CRL-3276), 1.25 mM N-Acetyl-L-cysteine (Sigma-Aldrich, cat. A9165), 10 mM nicotinamide (Sigma-Aldrich, cat. N0636), 1X B-27 supplement (Thermo Fisher Scientific, cat. 17504044), 1X N-2 supplement (Thermo Fisher Scientific, cat. 17502048), 10 microM Y-27632 dihydrochloride (Tocris Bioscience, cat. 1254), and 50 ng/mL human EGF recombinant protein (Thermo Fisher Scientific, cat. PHG0311). The 485176-168-R4-J1-PDC line was cultured in Panc media, which includes all 6C/Colon 1B media components plus 100 ng/mL human FGF-10 (Thermo Fisher Scientific, cat. 100-26), 500 nM SB-431542 (Selleckchem, cat. S1067), and gastrin (Tocris, cat. 3006).
[…]
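Further: viability read after seven days of drug exposure.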
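Wherever viability, T/C is given: luminescence signal used as a proxy for viable cells; 100% = DMSO vehicle control wells.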

Structure (SMILES): COc1cccc2c1C(=O)c1c(O)c3c(c(O)c1C2=O)CC(O)(C(=O)CO)CC3OC1CC(N)C(O)C(C)O1 (configuration not stated) + Cc1[nH]c2ccc(F)cc2c1-c1nc2c3cccnc3c3ncccc3c2[nH]1
- IC50 (second compound 0.0316 µM): < 31.6 nM
- IC50 (second compound 0.1 µM): < 31.6 nM
- IC50 (second compound 0.316 µM): < 31.6 nM
- IC50 (second compound 1 µM): < 31.6 nM
- IC50 (second compound 3.16 µM): < 31.6 nM
- IC50 (second compound 10 µM): < 31.6 nM
- viability, T/C (second compound 0.0316 µM, first compound 0.0316 µM): 37.8%
- viability, T/C (second compound 0.0316 µM, first compound 0.1 µM): 16.7%
- viability, T/C (second compound 0.0316 µM, first compound 0.316 µM): 15.8%
- viability, T/C (second compound 0.0316 µM, first compound 1 µM): 11.2%
- viability, T/C (second compound 0.0316 µM, first compound 3.16 µM): 0.53%
- viability, T/C (second compound 0.0316 µM, first compound 10 µM): 0.35%
- viability, T/C (second compound 0.1 µM, first compound 0.0316 µM): 39.7%
- viability, T/C (second compound 0.1 µM, first compound 0.1 µM): 18%
- viability, T/C (second compound 0.1 µM, first compound 0.316 µM): 8.25%
- viability, T/C (second compound 0.1 µM, first compound 1 µM): 9.06%
- viability, T/C (second compound 0.1 µM, first compound 3.16 µM): 0.53%
- viability, T/C (second compound 0.1 µM, first compound 10 µM): 0.34%
- viability, T/C (second compound 0.316 µM, first compound 0.0316 µM): 37%
- viability, T/C (second compound 0.316 µM, first compound 0.1 µM): 18.9%
- viability, T/C (second compound 0.316 µM, first compound 0.316 µM): 14%
- viability, T/C (second compound 0.316 µM, first compound 1 µM): 9.89%
- viability, T/C (second compound 0.316 µM, first compound 3.16 µM): 0.62%
- viability, T/C (second compound 0.316 µM, first compound 10 µM): 0.43%
- viability, T/C (second compound 1 µM, first compound 0.0316 µM): 29.9%
- viability, T/C (second compound 1 µM, first compound 0.1 µM): 18.7%
- viability, T/C (second compound 1 µM, first compound 0.316 µM): 12.2%
- viability, T/C (second compound 1 µM, first compound 1 µM): 8.92%
- viability, T/C (second compound 1 µM, first compound 3.16 µM): 0.78%
- viability, T/C (second compound 1 µM, first compound 10 µM): 0.5%
- viability, T/C (second compound 3.16 µM, first compound 0.0316 µM): 18.3%
- viability, T/C (second compound 3.16 µM, first compound 0.1 µM): 18.4%
- viability, T/C (second compound 3.16 µM, first compound 0.316 µM): 16.1%
- viability, T/C (second compound 3.16 µM, first compound 1 µM): 11.4%
- viability, T/C (second compound 3.16 µM, first compound 3.16 µM): 0.97%
- viability, T/C (second compound 3.16 µM, first compound 10 µM): 0.58%
- viability, T/C (second compound 10 µM, first compound 0.0316 µM): 30.1%
- viability, T/C (second compound 10 µM, first compound 0.1 µM): 18.8%
- viability, T/C (second compound 10 µM, first compound 0.316 µM): 16.1%
- viability, T/C (second compound 10 µM, first compound 1 µM): 11.9%
- viability, T/C (second compound 10 µM, first compound 3.16 µM): 0.69%
- viability, T/C (second compound 10 µM, first compound 10 µM): 0.49%
